Consider ten compounds from patent US12650422B2, “Utility of protein in the prediction of in vivo effects” (Qualyst Transporter Solutions, LLC, priority 2014, dated 2026).

The term fraction unbound denotes the share of the substance not bound to proteins or other matrix.

Read-outs that look alike come from different tables or passages of the source.

The target of one data set is CYP2C9 (Homo sapiens, UniProt P11712). The protocol: (§1) Sandwich-Cultured Hepatocytes (SCH) were prepared using freshly isolated hepatocytes or cryopreserved hepatocytes. Freshly isolated hepatocytes were plated on 24-well cell culture plates, rinsed and fed with the appropriate species specific Qualyst Transporter Solutions (QTS, Durham, North Carolina, United States of America) propriety culture medium (QualGro™). Cells were maintained in the appropriate species specific medium until consumed in studies.
CYP2C9, sequence (P11712 whole entry): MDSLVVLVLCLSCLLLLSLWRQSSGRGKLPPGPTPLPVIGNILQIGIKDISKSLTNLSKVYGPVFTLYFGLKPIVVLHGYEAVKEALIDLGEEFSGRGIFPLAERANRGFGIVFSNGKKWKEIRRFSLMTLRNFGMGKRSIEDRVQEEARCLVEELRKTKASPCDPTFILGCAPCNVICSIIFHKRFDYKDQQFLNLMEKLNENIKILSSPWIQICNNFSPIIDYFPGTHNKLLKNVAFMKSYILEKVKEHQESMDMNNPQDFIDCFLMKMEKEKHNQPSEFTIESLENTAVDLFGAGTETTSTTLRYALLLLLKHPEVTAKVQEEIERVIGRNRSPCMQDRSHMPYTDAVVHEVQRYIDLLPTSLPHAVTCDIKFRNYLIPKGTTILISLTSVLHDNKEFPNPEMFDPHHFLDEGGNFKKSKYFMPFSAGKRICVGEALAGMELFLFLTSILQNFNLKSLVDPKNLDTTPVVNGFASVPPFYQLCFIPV
(§2) Cryopreserved hepatocytes were thawed following manufacturer's thawing instructions. Cryopreserved hepatocytes were subsequently suspended in QTS propriety hepatocyte seeding medium (QualGro™ Seeding Medium) at a density of 0.7-0.8 million viable cells/mL onto BioCoat® 24-well cell culture plates. Following plating, cells were allowed to attach for 2-4 hours, rinsed and fed with warm (37° C.) seeding medium. Eighteen to 24 hours later, cells were fed and overlaid with the appropriate species specific QTS propriety culture medium (QualGro™) supplemented with extracellular matrix (ECM), Matrigel® (0.25 mg/mL). Cells were maintained in QualGro™ Hepatocyte Culture Medium until consumed in studies.
(§3) Cells were cultured as described above through day 6 of culture. On day 7 of culture, spent culture medium was aspirated and replaced with HBSS incubation solution with or without 4% bovine serum albumin (BSA). […] In situ incubations were performed in cell culture incubators (37° C.; 5% CO2; 100% humidity) shaking at 120 rpm for 20-30 minutes. Following the incubation period, incubation solutions were collected and stored at −80° C. until processed for bioanalysis.
(§4) In situ incubations were analyzed for the detection of P450 mediated metabolite formation of hydroxymidazolam from midazolam and hydroxyibuprofen from ibuprofen. Briefly, a volume of 300 μL of internal standard solution (methanol containing 25 nM triazolam and d3-ibuprofen) and a volume of 100 μL of HBSS or HBSS plus 4% BSA were added to a protein precipitation plate (Millipore MDRPNP4; EDM Millipore, Billerica, Massachusetts, United States of America) stacked on a 96 deep well block. The plate was allowed to shake for 1 to 2 minutes prior to centrifugation for collection of the filtered supernatant. The sample filtrate was evaporated to dryness and the samples were reconstituted in 200 μL sample diluent, 40/60 methanol/10 mM ammonium acetate and mixed for at least 20 min on a plate shaker. The reconstituted samples were transferred to a Millipore 0.45 μm filter plate (Millipore MSHVN45) and filtered into a Costar 3957 plate by centrifugation and sealed with a silicone capmat prior to LC-MS/MS analysis.

For another data set, the system named is CYP3A4. The protocol: as §1, §2, §3, §4
A further data set deals with 4% BSA (Bos taurus, UniProt P02769). In words: Free fraction by equilibrium dialysis in 4% BSA. The format is in vitro ADME. The conditions noted are these: bovine, DPDPE line: 1 uM.
4% BSA, sequence (P02769 25-607): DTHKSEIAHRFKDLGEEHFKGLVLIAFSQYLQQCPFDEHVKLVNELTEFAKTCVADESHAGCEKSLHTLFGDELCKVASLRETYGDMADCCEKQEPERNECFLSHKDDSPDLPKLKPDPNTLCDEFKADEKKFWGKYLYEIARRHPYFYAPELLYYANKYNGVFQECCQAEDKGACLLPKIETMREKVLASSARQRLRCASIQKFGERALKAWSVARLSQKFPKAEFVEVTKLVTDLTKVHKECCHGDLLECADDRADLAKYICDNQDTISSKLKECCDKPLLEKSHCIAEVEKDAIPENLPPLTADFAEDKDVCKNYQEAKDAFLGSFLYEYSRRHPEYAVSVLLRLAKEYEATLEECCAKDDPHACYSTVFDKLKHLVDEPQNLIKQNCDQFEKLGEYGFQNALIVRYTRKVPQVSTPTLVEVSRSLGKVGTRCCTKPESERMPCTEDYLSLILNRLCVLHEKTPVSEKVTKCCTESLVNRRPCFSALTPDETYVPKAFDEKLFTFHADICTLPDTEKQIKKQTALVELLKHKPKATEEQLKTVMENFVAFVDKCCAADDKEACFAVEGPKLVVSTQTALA
Data set [1] in a line: Free fraction by equilibrium dialysis in serum. The conditions noted are these: DPDPE line: 1 uM; for fraction unbound: serum. The format is in vitro ADME. Background: Equilibrium dialysis compares concentrations on both sides of a semipermeable membrane.
From the text: (§5) The free fraction is the amount of compound that is considered thermodynamically free in solution compared to the amount which is considered to be thermodynamically bound to the albumin proteins.
For data set [2], the system named is sandwich-cultured rat hepatocytes. Nature of the data set: Intrinsic biliary clearance in sandwich-cultured rat hepatocytes. The conditions noted are these: for Observed Cl (ml/min/Kg) BSA: measured in the presence of BSA. The source says:
Representative calculations that can be employed in accordance with the presently disclosed subject matter include the calculations of a biliary excretion index and a biliary clearance value. […] In some embodiments, the BEI is a calculation of the uptake and excretion of the candidate compound as follows: 100%×{(uptake in the culture with intact bile canaliculi minus uptake within hepatocytes only in the Ca^2+-free culture) divided by (uptake in the culture with intact bile canaliculi)}. In some embodiments, the biliary clearance calculation is performed as follows: (uptake in the culture with intact bile canaliculi minus uptake within hepatocytes only in the Ca^2+-free culture) divided by (time of incubation multiplied by the concentration of the candidate compound in the buffer medium). In some embodiments, a biliary clearance value can be calculated as the ratio of the mass in the bile canaliculi and the area under the curve (AUC) in culture medium, wherein the AUC represents the integral of candidate compound in the medium from time 0 to time T (time can be measure in any desired units, and is usually measured in minutes). Indeed, the term AUC can refer to the following equation: […]
The data for each compound was determined in sandwich-cultured rat hepatocytes at a concentration of 1 μM and an exposure time of 10 minutes in buffer (no protein), in buffer with 4% BSA, or in rat serum.
This latter method is the current industry standard.

The test system of another data set is Rat Hepatocytes. Nature of the data set: Hepatic intracellular concentration (ICC) in rat hepatocytes, observed vs predicted. The format is in vitro ADME. The conditions noted are these: for Observed ICC (uM) BSA: one-step method with BSA. From the text:
The hepatic intracellular concentration (ICC) of a compound, which reflects the balance of the uptake, metabolism, and efflux out of the cell, can also be determined in the absence and presence of protein.

A further data set concerns human hepatocytes. In words: Intracellular concentration in human hepatocytes in the presence of albumin protein. The format is in vitro ADME. The source says: The observed effects of protein on the intracellular concentration, could lead to an over- or under-prediction of a compound's effect, drastically changing the expected clinical outcome. […] However, the intracellular concentrations never achieved high enough levels to result in hepatotoxic effects. […] Since the effect of protein was unanticipated and not predictable, it is desirable to expose the cell to protein during the experiment.

For data set [3] the following is noted: cited from earlier work.
Setting [4] is: absence of protein (HBSS), adjusted with free fraction of Table 1, 1 μM.
Where [5] appears, read: HBSS value adjusted with free fraction, DPDPE 10 uM.

From the text for 4% BSA: as §5

As to `OC(Cn1cncn1)(Cn1cncn1)c1ccc(F)cc1F` [Fluconazole], the “CYP2C9 enzyme activity reduced to % of control” value on CYP2C9 is on record as 24.4-45.1 % of control.

As for `CC(=O)N1CCN(c2ccc(OCC3COC(Cn4ccnc4)(c4ccc(Cl)cc4Cl)O3)cc2)CC1` (stereo not drawn) [Ketoconazole], the “CYP3A4/5 Mean % Remaining” value in the data set with CYP3A4 (4% BSA, inhibitor 0.0500 μM) was found to be 54.6%; in the data set on CYP3A4 (4% BSA, inhibitor 0.250 μM), 40.8%; in the data set with CYP3A4 (No BSA, inhibitor 0.050 μM) it was 45.1%; with CYP3A4 (No BSA, inhibitor 0.250 μM), 24.4%.

Turning to `CCCCC(=O)N(Cc1ccc(-c2ccccc2-c2nnn[nH]2)cc1)[C@H](C(=O)O)C(C)C` [Valsartan], the fraction unbound at 4% BSA was 0.075; in data set [1] it was 0.004. The Intrinsic Biliary Clearance, BSA in data set [2] was 3.06 mL/min/kg. In data set [2] (rat), this compound gave an Intrinsic Biliary Clearance, No Protein of 4.73 mL/min/kg. For the same compound, the “Predicted Cl (ml/min/Kg) HBSS” value in data set [2] (rat, 10 min, 1 μM) was 0.36 mL/min/kg. For the same compound, the “Intrinsic Biliary Clearance, Serum” value in data set [2] (rat) was 1.39. In addition, the “Predicted ICC (uM) HBSS” value with Rat Hepatocytes (setting [4]) was 0.44 µM. The “Observed ICC (uM) BSA” value with Rat Hepatocytes (1 μM) was 0.22 µM.

In the case of `CC1(C)SSC(C)(C)[C@@H](NC(=O)[C@@H](N)Cc2ccc(O)cc2)C(=O)NCC(=O)N[C@@H](Cc2ccccc2)C(=O)N[C@H]1C(=O)O` [DPDPE], the “Predicted Cl (ml/min/Kg) HBSS” value in data set [2] (setting [5]) is 4.24 mL/min/kg; in data set [2] (measured in absence of protein (HBSS), adjusted with free fraction of Table 1, 1 μM), 5.69 mL/min/kg. The figures for the “Observed Cl (ml/min/Kg) BSA” value in data set [2] (1 μM) and in data set [2] (DPDPE 10 uM) were 2.51 mL/min/kg and 3.32 mL/min/kg, respectively. The “Predicted biliary clearance compared with observed biliary clearance” value in data set [2] (two-step prediction vs measurement with BSA, DPDPE at 1 μM) was “over-estimated”. Also, the “Predicted ICC (uM) HBSS” value was 13.63 µM in the data set on Rat Hepatocytes (setting [5]) and 1.42 µM with Rat Hepatocytes (setting [4]). In addition, the figures for the “Observed ICC (uM) BSA” value with Rat Hepatocytes (1 μM) and in the data set with Rat Hepatocytes (DPDPE 10 uM) were 1.98 µM and 15.51 µM, respectively.

In the case of `CC(C)c1nc(N(C)S(C)(=O)=O)nc(-c2ccc(F)cc2)c1/C=C/[C@@H](O)C[C@@H](O)CC(=O)O` [Rosuvastatin], at 4% BSA, the unbound share (fraction unbound) turned out to be 0.136. For the same compound, in data set [2], the Intrinsic Biliary Clearance, BSA amounted to 164 mL/min/kg and the “Predicted biliary clearance compared with observed biliary clearance” value is “under-estimated by a significant amount”. This compound gave an Intrinsic Biliary Clearance, No Protein in data set [2] (rat) of 53.1 mL/min/kg. Besides, the “Predicted Cl (ml/min/Kg) HBSS” value in data set [2] (rat, 10 min, 1 μM) was 7.22 mL/min/kg. Further, the “Predicted ICC (uM) HBSS” value with Rat Hepatocytes (setting [4]) was 3.09 µM. Further, in the data set on Rat Hepatocytes (1 μM), the “Observed ICC (uM) BSA” value was 6.81 µM.

On to `C[C@H]1O[C@@H](O[C@H]2[C@@H](O)C[C@H](O[C@H]3[C@@H](O)C[C@H](O[C@H]4CC[C@@]5(C)[C@H](CC[C@@H]6[C@@H]5C[C@@H](O)[C@]5(C)[C@@H](C7=CC(=O)OC7)CC[C@]65O)C4)O[C@@H]3C)O[C@@H]2C)C[C@H](O)[C@@H]1O` [Digoxin], for which, at 4% BSA, the fraction unbound is 0.852. The “Free Fraction in Serum” value in data set [1] came to 0.727. In addition, in data set [2], the Intrinsic Biliary Clearance, BSA was 9.25 mL/min/kg. Besides, in data set [2] (rat), the Intrinsic Biliary Clearance, No Protein is 10.4 mL/min/kg and the “Intrinsic Biliary Clearance, Serum” value amounted to 5.12. Besides, the “Predicted Cl (ml/min/Kg) HBSS” value in data set [2] (rat, 10 min, 1 μM) is 8.85 mL/min/kg. The “Predicted ICC (uM) HBSS” value in the data set with Rat Hepatocytes (setting [4]) was 1.59 µM. In addition, the “Observed ICC (uM) BSA” value in the data set on Rat Hepatocytes (1 μM) is 1.29 µM.

As to `CCCc1nc2c(C)cc(-c3nc4ccccc4n3C)cc2n1Cc1ccc(-c2ccccc2C(=O)O)cc1` [telmisartan], the “Intracellular concentration in presence of protein greater than predicted from protein-free data adjusted by free fraction” value in the data set with human hepatocytes was 100 ×. For the same compound, in data set [3], the “Toxicity associated with its use (in vivo data)” value is recorded as “no known toxicity”.

`CC[C@H](C)C(=O)O[C@H]1C[C@H](O)C=C2C=C[C@H](C)[C@H](CC[C@@H](O)C[C@@H](O)CC(=O)O)[C@H]21` [Pravastatin] gave a fraction unbound at 4% BSA of 0.734. The fraction unbound in data set [1] was found to be 0.554. In data set [2], this compound showed an Intrinsic Biliary Clearance, BSA of 6.47 mL/min/kg. For the same compound, in data set [2] (rat), the Intrinsic Biliary Clearance, No Protein was determined as 7.35 mL/min/kg and the “Intrinsic Biliary Clearance, Serum” value turned out to be 2.06. Besides, the “Predicted Cl (ml/min/Kg) HBSS” value in data set [2] (rat, 10 min, 1 μM) is 5.39 mL/min/kg.

On to `CN(Cc1cnc2nc(N)nc(N)c2n1)c1ccc(C(=O)N[C@@H](CCC(=O)O)C(=O)O)cc1` [Methotrexate], for which the fraction unbound was 0.428 at 4% BSA and 0.499 in data set [1]. For the same compound, the Intrinsic Biliary Clearance, BSA in data set [2] is 0.19 mL/min/kg. This compound also gave an Intrinsic Biliary Clearance, No Protein in data set [2] (rat) of 0.54 mL/min/kg. Also, the “Predicted Cl (ml/min/Kg) HBSS” value in data set [2] (rat, 10 min, 1 μM) was 0.23 mL/min/kg. Also, in data set [2] (rat), the “Intrinsic Biliary Clearance, Serum” value was 0.91. In addition, the “Predicted ICC (uM) HBSS” value with Rat Hepatocytes (setting [4]) is 0.48 µM. Further, in the data set on Rat Hepatocytes (1 μM), the “Observed ICC (uM) BSA” value is 0.47 µM.

For the compound `O=C(O)C[C@H](O)C[C@H](O)/C=C/c1c(C2CC2)nc2ccccc2c1-c1ccc(F)cc1` [Pitavastatin], the fraction unbound at 4% BSA was 0.047. Further, the fraction unbound in data set [1] amounted to 0.004. Also, in data set [2], the Intrinsic Biliary Clearance, BSA was 140 mL/min/kg and the “Predicted biliary clearance compared with observed biliary clearance” value is on record as “under-estimated by a significant amount”. Also, in data set [2] (rat), the Intrinsic Biliary Clearance, No Protein was 52 mL/min/kg and the “Intrinsic Biliary Clearance, Serum” value amounted to 277.50. The “Predicted Cl (ml/min/Kg) HBSS” value in data set [2] (rat, 10 min, 1 μM) was 2.44 mL/min/kg.
